The source of these data is patent US6403633B2, “Heteroaryl amidines, methylamidines and guanidines, and use thereof as protease inhibitors” (3-Dimensional Pharmaceuticals, Inc., priority 1998, dated 2002).

Where a name gives a salt, the structure may show the parent alone.

The target in one test is T1, human kidney urokinase (Homo sapiens, UniProt P00749).
T1 construct: purchased Sigma U5004; host or cells: human kidney cells
Put plainly: In vitro inhibition of purified enzymes, Ki determination: urokinase (uPA). Format: biochemical.
Conditions: not given
The source says: (§1) Reagents: All buffer salts were obtained from Sigma Chemical Company (St. Louis, Mo.), and were of the highest purity available. The enzyme substrates, N-benzoyl-Phe-Val-Arg-p-nitroanilide (Sigma B7632), N-benzoyl-Ile-Glu-Gly-Arg-p-nitroanilide hydrochloride (Sigma B2291), N-p-tosyl-Gly-Pro-Lys-p-nitroanilide (Sigma T6140), N-succinyl-Ala-Ala-Pro-Phe-p-nitroanilide (Sigma S7388) and N-CBZ-Val-Gly-Arg-p-nitroanilide (Sigma C7271) were obtained from Sigma.
Human α-thrombin, human factor Xa and human plasmin were obtained from Enzyme Research Laboratories (South Bend, Ind.). Bovine α-chymotrypsin (Sigma C4129), bovine trypsin (Sigma T8642) and human kidney cell urokinase (Sigma U5004) were obtained from Sigma. Human leukocyte elastase was obtained from Elastin Products (Pacific, Mo.). Ki Determinations: All assays are based on the ability of the test compound to inhibit the enzyme catalyzed hydrolysis of a peptide p-nitroanilide substrate. […] The final concentrations for each of the substrates is listed below. In general, substrate concentrations are lower than the experimentally determined value for Km. Test compounds are prepared as a 1.0 mg/ml solution in DMSO. Dilutions are prepared in DMSO yielding 8 final concentrations encompassing a 200 fold concentration range. Enzyme solutions are prepared at the concentrations listed below in assay buffer.
Data corresponding to less than 10% of the total substrate hydrolysis were used in the calculations. The ratio of the velocity (rate of change in absorbance as a function of time) for a sample containing no test compound is divided by the velocity of a sample containing test compound, and is plotted as a function of test compound concentration. The data are fit to a linear regression, and the value of the slope of the line calculated. The inverse of the slope is the experimentally determined Ki value. Thrombin: Thrombin activity was assessed as the ability to hydrolyze the substrate N-succinyl-Ala-Ala-Pro-Arg-p-nitroanilide. […] Final DMSO concentration was 4.3%. […] Factor X [FXa]: FXa activity was assessed as the ability to hydrolyze the substrate N-benzoyl-Ile-Glu-Gly-Arg-p-nitroanilide hydrochloride. […] Final DMSO concentration was 4.3%. Purified activated human Factor X was diluted into assay buffer to a concentration of 300 nM. […] Plasmin: Plasmin activity was assessed as the ability to hydrolyze the N-p-Tosyl-Gly-Pro-Lys-p-nitroanilide. […] Final DMSO concentration was 4.3%. […] Chymotrypsin: Chymotrypsin activity was assessed as the ability to hydrolyze N-succinyl-Ala-Ala-Pro-Phe-p-nitroanilide. […] Final DMSO concentration was 4.3%. […] Trypsin: Trypsin activity was assessed as the ability to hydrolyze N-benzoyl-Phe-Val-Arg-p-nitroanilide. […] Final DMSO concentration was 4.3%. […] Elastase: Elastase activity was assessed as the ability to hydrolyze N-succinyl-Ala-Ala-Pro-Val-p-nitroanilide. […] Final DMSO concentration was 4.3%. […] Urokinase: Urokinase activity was assessed as the ability to hydrolyze N-CBZ-Val-Gly-Arg-p-nitroanilide. […] Final DMSO concentration was 4.3%. […] Final reagent concentrations were: [Urokinase]=40 nM, and N-CBZ-Val-Gly-Arg-p-nitroanilide]=[…].
For orientation: Ki means the equilibrium dissociation constant of an inhibitor or competing ligand from its target. For the compound `CSc1sc(C(=N)N)cc1Oc1ccccc1` [Example 288, 5-Methylthio-4-phenoxythiophene-2-carboxamidine trifluoroacetate], the Ki fell in the range of 16 to 3500 nM.

Staying with this test, now noted: uPA; substrate N-CBZ-Val-Gly-Arg-p-nitroanilide; [Urokinase]=40 nM; pH 7.5, 37° C.; one range stated for the listed compounds; read-out: Ki values for uPA.
Turning to `CSc1sc(C(=N)N)cc1Nc1nc(-c2ccccc2)cs1` [Example 204, 5-Methylthio-4-[(4-phenyl(1,3-thiazol-2-yl))amino]thiophene-2-carboxamidine], the Ki was 16 to 3500 nM. The same measure, in the same setting: under `CSc1sc(C(=N)N)cc1NC(=O)c1ccc2ccccc2n1` [Example 235, 5-Methylthio-4-(2-quinolylcarbonylamino)thiophene-2-carboxamidine] stands 16 to 3500 nM; under `COc1sc(C(=N)N)cc1-c1nc(-c2ccccc2)cs1` [Example 139, 5-Methoxy-4-(4-phenyl(1,3-thiazol-2-yl))thiophene-2-carboxamidine], 16 to 3500 nM. Consider `CSc1sc(C(=N)N)cc1C(=N)NCc1ccccc1` [Example 89, 4-{Imino[benzylamino]methyl}-5-methylthiothiophene-2-carboxamidine hydrochloride], for which the inhibition constant (Ki) fell in the range of 16 to 3500 nM. The same measure, in the same setting: next, `CSc1sc(C(=N)N)cc1NCc1ccccc1` [Example 220, 5-Methylthio-4-[benzylamino]thiophene-2-carboxamidine]: 16 to 3500 nM; `C[S+]([O-])c1sc(C(=N)N)cc1-c1nc(-c2ccc(Cl)cc2)cs1` (stereo not shown) [Example 138, 4-[4-(4-Chlorophenyl)(1,3-thiazol-2-yl)]-5-(methylsulfinyl)thiophene-2-carboxamidine]: 16 to 3500 nM; `CSc1sc(C(=N)N)cc1-c1nc(-c2ccccc2)co1` [Example 84, 5-Methylthio-4-(4-phenyl(1,3-oxazol-2-yl))thiophene-2-carboxamidine hydrochloride]: 16 to 3500 nM. On the same count and under the same terms, next, `CSc1sc(C(=N)N)cc1Nc1ccc2ccccc2c1` [Example 208, 5-Methylthio-4-(2-naphthylamino)thiophene-2-carboxamidine]: 16 to 3500 nM; `CSc1sc(C(=N)N)cc1N(S(=O)(=O)c1ccc(Cl)cc1)S(=O)(=O)c1ccc(Cl)cc1` [Example 281, 4-{Bis[(4-chlorophenyl)sulfonyl]amino}-5-methylthiothiophene-2-carboxamidine]: 16 to 3500 nM. Still for that read-out and setting: next, `CSc1sc(C(=N)N)cc1Nc1ncccn1` [Example 200, 5-Methylthio-4-(pyrimidin-2-ylamino)thiophene-2-carboxamidine hydrochloride]: 16 to 3500 nM. In the case of `COc1ccc(OC)c(-c2csc(-c3cc(C(=N)N)sc3SC)n2)c1` [Example 28, 4-[4-(2,5-Dimethoxyphenyl)(1,3-thiazol-2-yl)]-5-methylthiothiophene-2-carboxamidine hydrochloride], the Ki lay within 16 to 3500 nM. Same read-out and setting: next, `CSc1sc(C(=N)N)cc1-c1ncc(-c2ccccc2)o1` [Example 79, 5-Methylthio-4-(5-phenyl(1,3-oxazol-2-yl))thiophene-2-carboxamidine hydrochloride]: 16 to 3500 nM; `CSc1sc(C(=N)N)cc1Nc1cccc([N+](=O)[O-])c1` [Example 213, 5-Methylthio-4-[(3-nitrophenyl)amino]thiophene-2-carboxamidine]: 16 to 3500 nM. Still for that read-out and setting: under `CSc1sc(C(=N)N)cc1-c1nc(-c2ccccc2)c(-c2ccccc2)s1` [Example 131, 4-(4,5-Diphenyl(1,3-thiazol-2-yl))-5-methylthiothiophene-2-carboxamidine] stands 16 to 3500 nM; under `CSc1sc(C(=N)N)cc1NC(=O)/C=C/c1ccccc1` [Example 227, 4-((2E)-3-Phenylprop-2-enoylamino)-5-methylthiothiophene-2-carboxamidine], 16 to 3500 nM. On the same count and under the same terms, next, `CSc1sc(C(=N)N)cc1-c1nc(-c2cc(C(C)(C)C)nn2Cc2ccccc2)cs1` [Example 143, 4-{4-[3-(tert-Butyl)-1-benzylpyrazol-5-yl](1,3-thiazol-2-yl)}-5-methylthiothiophene-2-carboxamidine]: 16 to 3500 nM; `CSc1sc(C(=N)N)cc1NC(=O)COc1ccccc1` [Example 239, 5-Methylthio-4-(2-phenoxyacetylamino)thiophene-2-carboxamidine]: 16 to 3500 nM.

As for `CSc1sc(C(=N)N)cc1-c1nc(-c2cccc(OCC(=O)O)c2)cs1` [Example 40, 2-{3-[2-(5-Amidino-2-methylthio-3-thienyl)-1,3-thiazol-4-yl]phenoxy}acetic acid], the inhibition constant Ki fell in the range of 16 to 3500 nM. Regarding `CSc1sc(C(=N)N)cc1NC(=O)c1ccc(Oc2cc(Cl)cc(Cl)c2)o1` [Example 233], the Ki was 16 to 3500 nM.

The target of a further test is T2, bovine trypsin (Bos taurus, UniProt P00760).
T2 construct: purchased Sigma T8642
T2 sequence (P00760 24-246): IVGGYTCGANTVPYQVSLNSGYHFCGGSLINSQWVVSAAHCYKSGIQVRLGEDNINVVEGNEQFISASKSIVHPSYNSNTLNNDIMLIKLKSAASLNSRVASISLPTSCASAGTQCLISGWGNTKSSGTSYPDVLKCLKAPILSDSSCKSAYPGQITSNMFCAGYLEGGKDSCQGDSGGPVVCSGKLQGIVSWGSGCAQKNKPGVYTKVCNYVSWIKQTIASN
Kind of test: In vitro inhibition of purified enzymes, Ki determination: trypsin. The format is biochemical. Conditions: substrate N-benzoyl-Phe-Val-Arg-p-nitroanilide 13 μM, [Trypsin]=4 nM, pH 7.5, 37° C.
Source text: as §1, with “Sigma. N-Succinyl-Ala-Ala-Pro-Arg-p-nitroanilide (BACHEM L-1720) and N-succinyl-Ala-Ala-Pro-Val-p-nitroanilide (BACHEM L-1770) were obtained from BACHEM (King of Prussia, Pa).” for “Sigma.”
Human α-thrombin, human factor Xa and human plasmin were obtained from Enzyme Research Laboratories (South Bend, Ind.). […] In general, substrate concentrations are lower than the experimentally determined value for Km. […]
In a typical Ki determination, into each well of a 96 well plate is pipetted 280 μL of substrate solution, 10 μL of test compound solution, and the plate allowed to thermally equilibrate at 37° C. in a Molecular Devices plate reader for >15 minutes. Reactions were initiated by the addition of a 10 μL aliquot of enzyme and the absorbance increase at 405 nm is recorded for 15 minutes. […] The data are fit to a linear regression, and the value of the slope of the line calculated. The inverse of the slope is the experimentally determined Ki value. […]
Take `CSc1sc(C(=N)N)cc1-c1nc(-c2cccc(OCC(=O)N3CCOCC3)c2)cs1` [Example 52, 5-Methylthio-4-{4-[3-(2-morpholin-4-yl-2-oxoethox)phenyl](1,3-thiazol-2-yl)}thiophene-2-carboxamidine trifluoroacetate]: the Ki came to 474 nM. For `COc1cccc(-c2csc(-c3cc(C(=N)N)sc3SC)n2)c1` [Example 8, 4-[4-(3-Methoxyphenyl)(1,3-thiazol-2-yl)]-5-methylthiothiophene-2-carboxamidine hydrochloride], the inhibition constant (Ki) turned out to be 858 nM.
